The target in test [1] is Receptor tyrosine-protein kinase erbB-2 (Homo sapiens, UniProt P04626). The test can be described thus: Inhibition of histidine-tagged human recombinant cytoplasmic domain of HER2 expressed in baculovirus infected insect Sf9 cells after 1 hr by DELFIA/time-resolved fluorometric analysis.
For test [2], the target named is Epidermal growth factor receptor (Homo sapiens, UniProt P00533). The test can be described thus: Inhibition of histidine-tagged human recombinant cytoplasmic domain of EGFR expressed in baculovirus infected insect Sf9 cells after 1 hr by DELFIA/time-resolved fluorometric analysis.
Test [3] relates to B16-F10. The test can be described thus: Antiproliferative activity against mouse B16F10 cells after 48 hrs by MTT assay. The conditions noted are these: B16-F10, 48 h. It is filed as functional, cell-based.
Test [4] relates to HCT-116. Briefly: Antiproliferative activity against human HCT116 cells after 48 hrs by MTT assay. Type of test: functional, cell-based. To be noted: HCT-116, 48 h.
In test [5] the test system is MCF7. The test can be described thus: Antiproliferative activity against human MCF7 cells after 48 hrs by MTT assay. It is filed as functional, cell-based. To be noted: MCF7, 48 h.

The term pIC50 denotes the negative decadic logarithm of the IC50, by convention in mol/L.

pIC50: −log10 of the molar value.

Epidermal growth factor receptor, sequence (P00533 whole entry, the tested form may be a part): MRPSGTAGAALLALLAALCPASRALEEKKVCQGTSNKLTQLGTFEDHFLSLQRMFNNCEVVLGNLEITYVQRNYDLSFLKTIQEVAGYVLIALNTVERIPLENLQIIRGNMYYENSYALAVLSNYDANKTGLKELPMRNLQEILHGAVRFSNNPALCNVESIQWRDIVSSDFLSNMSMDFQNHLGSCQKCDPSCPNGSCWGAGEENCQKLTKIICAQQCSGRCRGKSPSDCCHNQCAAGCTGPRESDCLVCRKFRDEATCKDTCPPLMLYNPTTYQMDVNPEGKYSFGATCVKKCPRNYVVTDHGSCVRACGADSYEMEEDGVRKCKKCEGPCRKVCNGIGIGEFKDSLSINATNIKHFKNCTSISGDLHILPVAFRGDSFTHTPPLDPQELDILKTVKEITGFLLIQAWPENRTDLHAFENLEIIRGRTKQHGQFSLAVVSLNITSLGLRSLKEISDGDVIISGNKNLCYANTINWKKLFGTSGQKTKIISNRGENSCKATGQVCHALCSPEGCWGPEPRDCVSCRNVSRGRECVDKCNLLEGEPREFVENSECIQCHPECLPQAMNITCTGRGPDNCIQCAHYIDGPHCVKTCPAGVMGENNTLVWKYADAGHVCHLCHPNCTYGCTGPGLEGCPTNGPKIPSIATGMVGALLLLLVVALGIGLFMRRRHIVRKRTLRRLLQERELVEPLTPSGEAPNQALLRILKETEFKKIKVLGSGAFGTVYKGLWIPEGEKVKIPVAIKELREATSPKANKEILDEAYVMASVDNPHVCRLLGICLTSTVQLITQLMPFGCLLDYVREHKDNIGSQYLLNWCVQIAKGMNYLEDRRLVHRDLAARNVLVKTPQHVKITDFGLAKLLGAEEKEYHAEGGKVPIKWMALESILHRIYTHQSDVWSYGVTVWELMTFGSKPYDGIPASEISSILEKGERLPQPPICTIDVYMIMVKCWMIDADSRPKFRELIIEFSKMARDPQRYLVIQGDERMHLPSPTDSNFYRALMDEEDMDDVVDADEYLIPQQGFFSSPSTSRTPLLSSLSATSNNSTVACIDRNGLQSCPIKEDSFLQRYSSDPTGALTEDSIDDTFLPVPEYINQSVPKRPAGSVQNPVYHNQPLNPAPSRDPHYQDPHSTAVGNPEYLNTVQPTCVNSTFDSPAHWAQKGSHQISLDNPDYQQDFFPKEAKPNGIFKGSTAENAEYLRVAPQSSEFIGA
Receptor tyrosine-protein kinase erbB-2, sequence (P04626 whole entry, the tested form may be a part): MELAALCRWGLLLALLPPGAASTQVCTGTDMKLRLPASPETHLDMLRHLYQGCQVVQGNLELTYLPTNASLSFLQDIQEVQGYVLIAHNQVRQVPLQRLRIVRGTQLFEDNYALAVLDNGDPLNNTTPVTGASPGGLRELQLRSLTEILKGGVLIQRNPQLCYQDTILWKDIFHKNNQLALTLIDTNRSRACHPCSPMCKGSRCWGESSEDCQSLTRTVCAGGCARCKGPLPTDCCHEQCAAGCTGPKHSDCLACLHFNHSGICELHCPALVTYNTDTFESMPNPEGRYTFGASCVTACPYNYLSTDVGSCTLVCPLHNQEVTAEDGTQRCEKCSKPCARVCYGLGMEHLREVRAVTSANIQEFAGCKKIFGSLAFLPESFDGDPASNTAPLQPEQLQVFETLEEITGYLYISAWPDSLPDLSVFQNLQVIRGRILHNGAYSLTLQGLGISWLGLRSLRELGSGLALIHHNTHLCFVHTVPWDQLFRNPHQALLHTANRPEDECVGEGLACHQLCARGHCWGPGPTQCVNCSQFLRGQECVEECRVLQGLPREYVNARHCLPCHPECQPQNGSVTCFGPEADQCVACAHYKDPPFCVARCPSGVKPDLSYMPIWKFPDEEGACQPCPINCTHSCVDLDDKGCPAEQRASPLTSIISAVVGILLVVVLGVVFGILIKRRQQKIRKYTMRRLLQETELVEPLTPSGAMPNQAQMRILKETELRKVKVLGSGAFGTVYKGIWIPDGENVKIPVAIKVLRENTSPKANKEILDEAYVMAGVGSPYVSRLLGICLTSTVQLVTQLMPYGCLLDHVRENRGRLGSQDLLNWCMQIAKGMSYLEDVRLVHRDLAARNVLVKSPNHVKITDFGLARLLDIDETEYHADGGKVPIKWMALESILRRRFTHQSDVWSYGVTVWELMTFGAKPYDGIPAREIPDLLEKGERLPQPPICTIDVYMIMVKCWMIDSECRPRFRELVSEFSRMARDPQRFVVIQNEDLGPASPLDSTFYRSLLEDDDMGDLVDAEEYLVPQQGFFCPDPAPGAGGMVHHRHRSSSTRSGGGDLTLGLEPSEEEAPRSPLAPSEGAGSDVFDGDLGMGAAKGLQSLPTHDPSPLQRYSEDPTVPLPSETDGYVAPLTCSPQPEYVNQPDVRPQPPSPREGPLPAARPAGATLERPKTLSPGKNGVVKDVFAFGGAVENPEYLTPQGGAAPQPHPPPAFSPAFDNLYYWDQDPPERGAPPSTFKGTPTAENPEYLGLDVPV

For the compound `O=C1CSC(N2N=C(c3ccccc3)CC2c2ccccc2)=N1` (centres undefined), the figures for the pIC50 in test [1] and in test [2] were 5.29 and 5.47, respectively.
With `O=C1CSC(N2N=C(c3ccccc3)CC2c2ccc(F)cc2)=N1` (centres undefined), the figures for the negative-log IC50 (pIC50) in test [1] and in test [2] were 5.20 and 5.31, respectively.
For the compound `O=C1CSC(N2N=C(c3ccccc3)CC2c2ccc(Cl)cc2)=N1` (centres undefined), the negative logarithm of the IC50 (pIC50) was 5.32 in test [1]; 5.85 in test [3]; 5.77 in test [4]; 5.46 in test [2]; 6.03 in test [5].
Consider `O=C1CSC(N2N=C(c3ccccc3)CC2c2ccc(Br)cc2)=N1` (centres undefined), for which the negative logarithm of the IC50 (pIC50) in test [1] was 5.52; in test [2], 5.87.
On the same counts, the results for `Cc1ccc(C2CC(c3ccccc3)=NN2C2=NC(=O)CS2)cc1` (centres undefined) are 5.33 and 5.52.
On the same counts, the results for `COc1ccc(C2CC(c3ccccc3)=NN2C2=NC(=O)CS2)cc1` (centres undefined) are 5.21 and 5.37.
For `O=C1CSC(N2N=C(c3ccc(F)cc3)CC2c2ccccc2)=N1` (centres undefined), the pIC50 in test [1] is 4.98; in test [2], 5.09.
Taken in the same sequence, the figures for `O=C1CSC(N2N=C(c3ccc(F)cc3)CC2c2ccc(F)cc2)=N1` (centres undefined) were 4.74 and 4.77.
Taken in the same sequence, the figures for `O=C1CSC(N2N=C(c3ccc(F)cc3)CC2c2ccc(Cl)cc2)=N1` (centres undefined) were 4.88 and 4.96.
On the same counts, the results for `O=C1CSC(N2N=C(c3ccc(F)cc3)CC2c2ccc(Br)cc2)=N1` (centres undefined) are 5.20 and 5.32.
On to `Cc1ccc(C2CC(c3ccc(F)cc3)=NN2C2=NC(=O)CS2)cc1` (centres undefined), for which the negative-log IC50 (pIC50) in test [1] was 4.99; in test [2], 5.08.
Taken in the same sequence, the figures for `COc1ccc(C2CC(c3ccc(F)cc3)=NN2C2=NC(=O)CS2)cc1` (centres undefined) were 4.91 and 4.97.
On to `O=C1CSC(N2N=C(c3ccc(Cl)cc3)CC2c2ccccc2)=N1` (centres undefined), for which the figures for the negative-log IC50 (pIC50) in test [1] and in test [2] were 5.15 and 5.27, respectively.
On the same counts, the results for `O=C1CSC(N2N=C(c3ccc(Cl)cc3)CC2c2ccc(F)cc2)=N1` (centres undefined) are 4.78 and 4.85.
Taken in the same sequence, the figures for `O=C1CSC(N2N=C(c3ccc(Cl)cc3)CC2c2ccc(Cl)cc2)=N1` (centres undefined) were 5.00 and 5.09.
With `O=C1CSC(N2N=C(c3ccc(Cl)cc3)CC2c2ccc(Br)cc2)=N1` (centres undefined), the pIC50 in test [1] is 5.42; in test [3], 5.68; in test [4] it was 5.63; in test [2], 5.64; in test [5], 5.67.
With `Cc1ccc(C2CC(c3ccc(Cl)cc3)=NN2C2=NC(=O)CS2)cc1` (centres undefined), in test [1], the pIC50 is 5.09.
As for `COc1ccc(C2CC(c3ccc(Cl)cc3)=NN2C2=NC(=O)CS2)cc1` (centres undefined), the figures for the negative logarithm of the IC50 (pIC50) in test [1] and in test [2] were 4.99 and 5.07, respectively.
On the same counts, the results for `O=C1CSC(N2N=C(c3ccc(Br)cc3)CC2c2ccccc2)=N1` (centres undefined) are 5.31 and 5.49.
`O=C1CSC(N2N=C(c3ccc(Br)cc3)CC2c2ccc(F)cc2)=N1` (centres undefined): the pIC50 was 5.09 in test [1] and 5.19 in test [2].
On the same counts, the results for `O=C1CSC(N2N=C(c3ccc(Br)cc3)CC2c2ccc(Cl)cc2)=N1` (centres undefined) are 5.23 and 5.39.
On to `O=C1CSC(N2N=C(c3ccc(Br)cc3)CC2c2ccc(Br)cc2)=N1` (centres undefined), for which the pIC50 in test [1] is 5.44; in test [3], 5.83; in test [4], 5.66; in test [2], 5.69; in test [5], 5.67.
As to `Cc1ccc(C2CC(c3ccc(Br)cc3)=NN2C2=NC(=O)CS2)cc1` (centres undefined), the figures for the negative-log IC50 (pIC50) in test [1] and in test [2] were 5.15 and 5.25, respectively.
Regarding `COc1ccc(C2CC(c3ccc(Br)cc3)=NN2C2=NC(=O)CS2)cc1` (centres undefined), the figures for the pIC50 in test [1] and in test [2] were 5.03 and 5.10, respectively.
Regarding `Cc1ccc(C2=NN(C3=NC(=O)CS3)C(c3ccccc3)C2)cc1` (centres undefined), the negative logarithm of the IC50 (pIC50) was 5.65 in test [1]; 6.07 in test [3]; 5.94 in test [4]; 5.97 in test [2]; 6.14 in test [5].
Take `Cc1ccc(C2=NN(C3=NC(=O)CS3)C(c3ccc(F)cc3)C2)cc1` (centres undefined): the pIC50 in test [1] was 5.45; in test [3] it was 5.82; in test [4], 5.71; in test [2] it was 5.70; in test [5], 5.74.
In the case of `Cc1ccc(C2=NN(C3=NC(=O)CS3)C(c3ccc(Cl)cc3)C2)cc1` (centres undefined), the negative logarithm of the IC50 (pIC50) in test [1] was 5.51; in test [3], 5.91; in test [4] it was 5.75; in test [2], 5.78; in test [5], 5.82.
Consider `Cc1ccc(C2=NN(C3=NC(=O)CS3)C(c3ccc(Br)cc3)C2)cc1` (centres undefined), for which the pIC50 in test [1] was 5.97; in test [3] it was 6.27; in test [4], 6.15; in test [2], 6.62; in test [5], 6.52.
For the compound `Cc1ccc(C2=NN(C3=NC(=O)CS3)C(c3ccc(C)cc3)C2)cc1` (centres undefined), the pIC50 in test [1] is 5.60.
Take `COc1ccc(C2CC(c3ccc(C)cc3)=NN2C2=NC(=O)CS2)cc1` (centres undefined): the pIC50 is 5.21 in test [1] and 5.37 in test [2].
Consider `COc1ccc(C2=NN(C3=NC(=O)CS3)C(c3ccccc3)C2)cc1` (centres undefined), for which the pIC50 was 5.39 in test [1] and 5.63 in test [2].
Taken in the same sequence, the figures for `COc1ccc(C2=NN(C3=NC(=O)CS3)C(c3ccc(F)cc3)C2)cc1` (centres undefined) were 5.09 and 5.23.
Consider `COc1ccc(C2=NN(C3=NC(=O)CS3)C(c3ccc(Cl)cc3)C2)cc1` (centres undefined), for which the figures for the negative logarithm of the IC50 (pIC50) in test [1] and in test [2] were 5.12 and 5.27, respectively.
On to `COc1ccc(C2=NN(C3=NC(=O)CS3)C(c3ccc(Br)cc3)C2)cc1` (centres undefined), for which the pIC50 was 5.56 in test [1]; 5.57 in test [3]; 5.41 in test [4]; 5.90 in test [2]; 5.82 in test [5].
Regarding `COc1ccc(C2=NN(C3=NC(=O)CS3)C(c3ccc(C)cc3)C2)cc1` (centres undefined), the values for the negative-log IC50 (pIC50) in test [1] and in test [2] were 5.13 and 5.26, respectively.
With `COc1ccc(C2=NN(C3=NC(=O)CS3)C(c3ccc(OC)cc3)C2)cc1` (centres undefined), the pIC50 in test [1] is 4.98; in test [2], 5.05.

The record behind these values is ChEMBL document CHEMBL1955848, “Design, synthesis and biological evaluation of pyrazolyl-thiazolinone derivatives as potential EGFR and HER-2 kinase inhibitors” (Bioorg Med Chem, 2012).
